Results on five molecules are retold here after patent EP1200406B1, “CYCLIC AMIDES AND IMIDES HAVING SELECTIVE ANTAGONIST ACTIVITY AT ALPHA-1D ADRENERGIC RECEPTOR” (RECORDATI INDUSTRIA CHIMICA E FARMACEUTICA S.p.a., priority 1999, dated 2001).

Like-named read-outs stand apart in the source and are kept apart here. Bounds are passed on as bounds.

For assay [1], the target named is T1, human recombinant α1d adrenoceptor (Homo sapiens, UniProt P25100).
T1 construct: expressed in transfected cells; host or cells: CHO cells (membranes)
T1 sequence (P25100 1-572): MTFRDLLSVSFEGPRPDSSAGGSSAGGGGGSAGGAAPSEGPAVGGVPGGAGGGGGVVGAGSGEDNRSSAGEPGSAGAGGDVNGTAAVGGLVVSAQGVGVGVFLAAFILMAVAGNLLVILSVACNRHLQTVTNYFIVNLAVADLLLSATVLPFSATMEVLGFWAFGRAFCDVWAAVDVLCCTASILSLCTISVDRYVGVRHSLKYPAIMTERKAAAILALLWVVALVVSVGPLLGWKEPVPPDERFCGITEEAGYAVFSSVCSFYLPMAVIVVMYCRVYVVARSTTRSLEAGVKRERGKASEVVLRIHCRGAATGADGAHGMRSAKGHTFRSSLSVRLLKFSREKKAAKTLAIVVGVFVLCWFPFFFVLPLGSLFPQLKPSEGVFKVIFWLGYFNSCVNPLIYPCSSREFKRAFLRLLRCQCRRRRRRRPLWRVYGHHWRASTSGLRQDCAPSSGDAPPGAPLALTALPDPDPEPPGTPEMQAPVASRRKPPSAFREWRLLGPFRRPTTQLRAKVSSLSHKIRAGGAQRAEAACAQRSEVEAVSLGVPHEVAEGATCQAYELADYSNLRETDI
The experiment in a line: Radioligand binding ([3H]prazosin) on membranes of CHO cells expressing cloned α1d adrenoceptor. The note with it: human cloned receptor, CHO cell membranes, 0.2 nM [3H]prazosin; read-out: Affinity (Ki) α1d. The procedure: (§1) The determination of affinity for cloned subtypes of human α1 adrenergic receptors was performed in membranes from CHO cells (chinese hamster ovary cells) transfected by electroporation with DNA expressing the genes encoding each α1-adrenoceptor subtype, namely α1a, α1b and α1d.. Cloning and stable expression of the human α1-adrenoceptor gene were performed as previously described (Testa et al., Pharmacol. Comm. 6, 79-86 (1995)). CHO cell membranes were incubated in […] Tris pH 7.4 with 0.2 nM [^3H]prazosin, in a final volume of 1.02 ml for 30 minutes at 25°C, in the absence or presence of competing drugs (1 pM-10 µM). Non-specific binding was determined in the presence of 10 µM phentolamine. Incubation was stopped by addition of ice-cold Tris buffer and rapid filtration through 0.2% polyethyleneimine pretreated Schleicher & Schuell GF52 filters. […] The HeLa cells were grown as monolayers in Dulbecco's modified Eagle's medium (DMEM), supplemented with 10% foetal calf serum and gentamicin (100 µg/ml), 5% CO2, at 37°C. The cells were detached from the growth flask at 95% confluence by a cell scraper and were lysed in ice-cold 5 mM Tris and 5-mM EDTA buffer (pH 7.4). The homogenates were centrifuged at 40000 x g x 20 minutes and the membranes were re-suspended in a small volume of ice-cold 5 mM Tris and 5-mM EDTA buffer (pH 7.4) and immediately frozen and stored at -70°C until use. On the experiment day, the cell membranes were re-suspended in a buffer containing 50 mM Tris (pH 7.4), 2.5 mM MgCl2, 10 µM pargyline (Fargin et al., Nature 335, 358-360 (1988)). […] The incubation was stopped by addition of ice-cold Tris buffer and rapid filtration through 0.2%-polyethyleneimine-pretreated Schleicher & Schuell filters. The inhibition of specific binding of the radioligands by the drugs was analysed to estimate the IC50 value by using the non-linear curve-fitting programme Allfit (De Lean et al., Am. J. Physiol. 235, E97-E102 (1978)). The IC50 value was converted to an affinity constant (Ki) by the equation of Cheng & Prusoff (Biochem. Pharmacol. 22, 3099-3108 (1973)). Data were expressed as mean of Ki.

The target of assay [2] is T2, human 5-HT1A-serotoninergic receptor (Homo sapiens, UniProt P08908).
T2 construct: expressed in transfected cells; host or cells: HeLa cells (membranes)
T2 sequence (P08908 1-422): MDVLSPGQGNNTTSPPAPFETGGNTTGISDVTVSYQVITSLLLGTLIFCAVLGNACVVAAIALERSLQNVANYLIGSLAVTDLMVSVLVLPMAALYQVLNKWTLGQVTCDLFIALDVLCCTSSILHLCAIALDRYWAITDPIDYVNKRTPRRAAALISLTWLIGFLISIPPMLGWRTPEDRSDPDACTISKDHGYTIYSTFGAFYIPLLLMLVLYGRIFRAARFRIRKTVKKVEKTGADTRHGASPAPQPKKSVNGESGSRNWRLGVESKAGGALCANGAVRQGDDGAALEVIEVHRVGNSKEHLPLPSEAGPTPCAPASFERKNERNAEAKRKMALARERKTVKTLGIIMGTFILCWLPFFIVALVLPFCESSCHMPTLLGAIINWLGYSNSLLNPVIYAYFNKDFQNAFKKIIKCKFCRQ
The experiment in a line: Radioligand binding ([3H]8-OH-DPAT) on membranes of HeLa cells expressing cloned 5-HT1A receptor. Particulars: read-out: Affinity (Ki) 5-HT1A. How it is done:
(§2) The determination of affinity for cloned subtypes of human α1 adrenergic receptors was performed in membranes from CHO cells (chinese hamster ovary cells) transfected by electroporation with DNA expressing the genes encoding each α1-adrenoceptor subtype, namely α1a, α1b and α1d.. Cloning and stable expression of the human α1-adrenoceptor gene were performed as previously described (Testa et al., Pharmacol. Comm. 6, 79-86 (1995)). CHO cell membranes were incubated in […] Tris pH 7.4 with 0.2 nM [^3H]prazosin, in a final volume of 1.02 ml for 30 minutes at 25°C, in the absence or presence of competing drugs (1 pM-10 µM). Non-specific binding was determined in the presence of 10 µM phentolamine. Incubation was stopped by addition of ice-cold Tris buffer and rapid filtration through 0.2% polyethyleneimine pretreated Schleicher & Schuell GF52 filters. Genomic clone G-21 coding for the human 5-HT1A-serotoninergic receptor was stably transfected in a human cell line (HeLa) (Fargin et al., J. Biol. Chem. 284, 14848-14852 (1989)). The HeLa cells were grown as monolayers in Dulbecco's modified Eagle's medium (DMEM), supplemented with 10% foetal calf serum and gentamicin (100 µg/ml), 5% CO2, at 37°C. The cells were detached from the growth flask at 95% confluence by a cell scraper and were lysed in ice-cold 5 mM Tris and 5-mM EDTA buffer (pH 7.4). The homogenates were centrifuged at 40000 x g x 20 minutes and the membranes were re-suspended in a small volume of ice-cold 5 mM Tris and 5-mM EDTA buffer (pH 7.4) and immediately frozen and stored at -70°C until use. On the experiment day, the cell membranes were re-suspended in a buffer containing 50 mM Tris (pH 7.4), 2.5 mM MgCl2, 10 µM pargyline (Fargin et al., Nature 335, 358-360 (1988)). […] The incubation was stopped by addition of ice-cold Tris buffer and rapid filtration through 0.2%-polyethyleneimine-pretreated Schleicher & Schuell filters. The inhibition of specific binding of the radioligands by the drugs was analysed to estimate the IC50 value by using the non-linear curve-fitting programme Allfit (De Lean et al., Am. J. Physiol. 235, E97-E102 (1978)). The IC50 value was converted to an affinity constant (Ki) by the equation of Cheng & Prusoff (Biochem. Pharmacol. 22, 3099-3108 (1973)). Data were expressed as mean of Ki.

Assay [3] has as its target T3, human recombinant α1b adrenoceptor (Homo sapiens, UniProt P35368).
T3 construct: expressed in transfected cells; host or cells: CHO cells (membranes)
T3 sequence (P35368 1-520): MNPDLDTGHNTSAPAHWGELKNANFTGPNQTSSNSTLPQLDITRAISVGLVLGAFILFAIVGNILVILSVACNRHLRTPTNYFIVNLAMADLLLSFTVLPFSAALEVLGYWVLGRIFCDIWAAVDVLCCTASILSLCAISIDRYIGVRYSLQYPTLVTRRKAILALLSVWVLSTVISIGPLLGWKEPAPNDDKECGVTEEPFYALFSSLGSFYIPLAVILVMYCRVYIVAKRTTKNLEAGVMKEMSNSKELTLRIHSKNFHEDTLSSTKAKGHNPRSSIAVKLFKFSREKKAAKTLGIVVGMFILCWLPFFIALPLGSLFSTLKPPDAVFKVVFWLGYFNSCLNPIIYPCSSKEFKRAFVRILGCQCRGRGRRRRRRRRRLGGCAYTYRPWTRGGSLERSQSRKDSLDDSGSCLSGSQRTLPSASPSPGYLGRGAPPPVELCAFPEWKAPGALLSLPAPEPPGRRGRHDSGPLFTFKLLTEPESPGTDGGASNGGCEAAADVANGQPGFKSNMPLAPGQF
The experiment in a line: Radioligand binding ([3H]prazosin) on membranes of CHO cells expressing cloned α1b adrenoceptor. The note with it: human cloned receptor, CHO cell membranes, 0.2 nM [3H]prazosin; read-out: Affinity (Ki) α1b. The procedure: as §2

Assay [4] has as its target T4, Rat aorta α1D (Rattus norvegicus, UniProt P23944).
T4 construct: from tissue; host or cells: rat thoracic aorta, helicoidal strips
T4 sequence (P23944 1-561): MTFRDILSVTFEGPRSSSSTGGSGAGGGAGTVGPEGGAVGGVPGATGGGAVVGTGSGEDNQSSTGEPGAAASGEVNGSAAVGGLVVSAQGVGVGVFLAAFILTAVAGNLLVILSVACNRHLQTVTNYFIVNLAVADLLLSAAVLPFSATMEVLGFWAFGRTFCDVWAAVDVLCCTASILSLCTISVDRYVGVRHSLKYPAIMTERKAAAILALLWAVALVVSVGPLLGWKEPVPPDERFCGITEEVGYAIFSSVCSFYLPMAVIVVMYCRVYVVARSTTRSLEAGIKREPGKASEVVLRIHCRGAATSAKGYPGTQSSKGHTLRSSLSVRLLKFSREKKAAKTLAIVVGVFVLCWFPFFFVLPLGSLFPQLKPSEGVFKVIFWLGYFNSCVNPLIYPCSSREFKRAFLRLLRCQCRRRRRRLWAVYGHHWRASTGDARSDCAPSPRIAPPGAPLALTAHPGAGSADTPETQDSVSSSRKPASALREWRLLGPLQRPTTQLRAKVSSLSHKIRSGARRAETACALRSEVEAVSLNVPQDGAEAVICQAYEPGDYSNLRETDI
The experiment in a line: Functional antagonism of noradrenaline-induced contraction, rat aorta strips. Type of assay: cell-based, Sprague Dawley rats. The note with it: noradrenaline as agonist, 30 minutes incubation, Schild plot; read-out: Functional affinity pKB, Rat aorta α1D (converted). The procedure: In vitro assessment of functional antagonism for α1-adrenoceptor subtypes
Thoracic aorta was obtained from Sprague Dawley rats, cut in helicoidal strips and placed in Krebs solution containing desmethylimipramine (0.1 µM), corticosterone (1 µM), propranol (1 µM) and yohimbine (0.1 µM). The strips were mounted for isotonic tension recording in an organ bath containing the above Krebs buffer enriched and aerated constantly with 95% O2 and 5% CO2, maintained at 37°C and loaded with 1.5 g. After an equilibration period, the strips were primed twice with 10 µM noradrenaline, then concentration/response-to-the-agonist curves were constructed before (basal) and after 30 minutes incubation with single antagonist concentrations (response). The Schild-plot parameters were evaluated by linear-regression analysis according to Tallarida and Murray (Manual of Pharmacologic Calculations with Computer Programs, 53-56, Springer-Verlag).

Assay [5] has as its target T5, human recombinant α1a adrenoceptor (Homo sapiens, UniProt P35348).
T5 construct: expressed in transfected cells; host or cells: CHO cells (membranes)
T5 sequence (P35348 1-466): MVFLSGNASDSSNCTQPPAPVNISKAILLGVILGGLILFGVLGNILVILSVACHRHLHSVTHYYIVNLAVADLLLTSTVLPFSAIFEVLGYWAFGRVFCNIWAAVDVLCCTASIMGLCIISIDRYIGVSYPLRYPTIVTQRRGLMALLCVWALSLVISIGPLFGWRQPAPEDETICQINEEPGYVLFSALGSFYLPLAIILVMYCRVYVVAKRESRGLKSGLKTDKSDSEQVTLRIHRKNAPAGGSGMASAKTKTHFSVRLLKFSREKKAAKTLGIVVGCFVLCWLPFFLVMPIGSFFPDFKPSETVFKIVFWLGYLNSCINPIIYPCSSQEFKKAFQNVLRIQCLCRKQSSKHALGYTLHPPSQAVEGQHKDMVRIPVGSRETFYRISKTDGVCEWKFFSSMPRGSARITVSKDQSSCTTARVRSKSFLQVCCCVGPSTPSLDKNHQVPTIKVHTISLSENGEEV
The experiment in a line: Radioligand binding ([3H]prazosin) on membranes of CHO cells expressing cloned α1a adrenoceptor. Particulars: human cloned receptor, CHO cell membranes, 0.2 nM [3H]prazosin; read-out: Affinity (Ki) α1a. How it is done:
as §1

The mark [6] stands for this setting: human cloned receptor, HeLa cell membranes, 1.2 nM [3H]8-OH-DPAT.

As to `O=C1CC2(CCCCC2)CCN1CCN1CCN(c2cc(Cl)ccc2Cl)CC1` [Example 25, 3-{2-[4-(2,5-Dichlorophenyl)-1-piperazinyl]-ethyl}-3-azaspiro[5.5]undecane-2-one], the Ki (commonly the dissociation constant of the complex between target and ligand, obtained from inhibition or displacement) in assay [1] was determined as 0.66 nM; in assay [2], 40.4 nM.
For `O=C1CCC(=O)N1CCN1CCN(c2cc(Cl)ccc2Cl)CC1` [Example 12, 1-{2-[4-(2,5-Dichlorophenyl)-1-piperazinyl]-ethyl}-pyrrolidine-2,5-dione], the inhibition constant (Ki) was 7.78 nM in assay [1], 86.4 nM in assay [3] and greater than 1000 nM in assay [2].
Regarding `O=C1CC2(CCCCCC2)CC(=O)N1CCN1CCN(c2cc(Cl)ccc2Cl)CC1` [Example 26, 3-{2-[4-(2,5-Dichlorophenyl)-1-piperazinyl]-ethyl}-3-azaspiro[5.6]dodecane-2,4-dione], the Ki was 0.96 nM in assay [1] and 35.3 nM in assay [2].
For the molecule `O=C1CC2(CCCC2)CCN1CCN1CCN(c2cc(Cl)ccc2Cl)CC1` [Example 19, 8-{2-[4-(2,5-Dichlorophenyl)-1-piperazinyl]-ethyl}-8-azaspiro[4.5]decane-7-one], in assay [4], the Kb was 1.29 nM. For the same molecule, the Ki in assay [3] stood at 10.6 nM; in assay [2] (setting [6]), 17.4 nM.
In the case of `Cc1ccc(Cl)c(N2CCN(CCN3C(=O)CC4(CCCC4)CC3=O)CC2)c1` [Example 3, 8-{2-[4-(2-Chloro-5-methylphenyl)-1-pirerazinyl]-ethyl}-8-azaspiro[4.5]decane-7,9-dione], the Ki in assay [3] turned out to be 193 nM; in assay [5] it was 126 nM; in assay [2] (setting [6]) it was 69.5 nM.
